In patent US8901118B2, “Compounds and methods for kinase modulation, and indications therefor” (Plexxikon Inc., priority 2010, dated 2014):

These compounds were tested against T1, BCR-KIT BaF3 cells (Homo sapiens, UniProt P10721) (assay: BaF3 BCR-KIT cell proliferation assay (ATPlite)). Details: read-out: Inhibition of Cell Proliferation IC50, BCR/BaF3 Kit.
T1 construct: fused on or other part: P11274 (Breakpoint cluster region protein)
Assay type: cell-based
Method in brief: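 Proliferation was run for 3 days at 37 °C against 8-point 1:3 titrations with 10 μM as the top final concentration. Seeding was 10,000 cells/well for BaF3 BCR-fusion lines, grown without IL-3, and 25,000 cells/well for MV-4-11. IC50 was derived from ATPlite luminescence read as cell number.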

T1 sequence (P10721 589-937): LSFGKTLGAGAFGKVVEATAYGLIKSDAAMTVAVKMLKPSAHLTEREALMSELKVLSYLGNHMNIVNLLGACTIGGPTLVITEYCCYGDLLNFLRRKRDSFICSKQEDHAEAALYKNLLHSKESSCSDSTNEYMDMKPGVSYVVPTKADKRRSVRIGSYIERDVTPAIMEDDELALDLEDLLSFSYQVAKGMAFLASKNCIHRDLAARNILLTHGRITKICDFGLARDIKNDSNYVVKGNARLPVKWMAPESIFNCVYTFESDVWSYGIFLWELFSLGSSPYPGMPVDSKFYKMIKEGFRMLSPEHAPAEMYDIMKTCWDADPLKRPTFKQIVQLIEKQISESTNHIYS

Row | SMILES | IC50
1 | Cc1cnc2[nH]cc(Cc3cnc(Nc4ccc(C(C)(C)C)cc4)nc3)c2c1 [Compound P-3030, (4-tert-Butyl-phenyl)-[5-(5-methyl-1H-pyrrolo[2,3-b]pyridin-3-ylmethyl)-pyrimidin-2-yl]-amine amine] | < 0.01 µM
2 | COc1ccc(Nc2ncc(Cc3c[nH]c4ncc(C)cc34)cn2)cc1 [Compound P-3021, (4-Methoxy-phenyl)-[5-(5-methyl-1H-pyrrolo[2,3-b]pyridin-3-ylmethyl)-pyrimidin-2-yl]-amine] | < 0.1 µM
3 | Cc1ccc(Nc2ccc(Cc3c[nH]c4ncc(Cl)cc34)c(F)n2)cn1 [Compound P-3042, [5-(5-Chloro-1H-pyrrolo[2,3-b]pyridin-3-ylmethyl)-6-fluoro-pyridin-2-yl]-(6-methyl-pyridin-3-yl)-amine] | < 1 µM
4 | CCCOc1ccc(Nc2ncc(Cc3c[nH]c4ncc(C)cc34)cn2)cc1 [Compound P-3024, [5-(5-Methyl-1H-pyrrolo[2,3-b]pyridin-3-ylmethyl)-pyrimidin-2-yl]-(4-propoxy-phenyl)-amine] | < 0.1 µM
5 | CCn1ccc(Nc2ncc(Cc3c[nH]c4ncc(C)cc34)cn2)n1 [Compound P-3035, (1-Ethyl-1H-pyrazol-3-yl)-[5-(5-methyl-1H-pyrrolo[2,3-b]pyridin-3-ylmethyl)-pyrimidin-2-yl]-amine] | < 1 µM
6 | CCn1cc(Nc2ncc(Cc3c[nH]c4ncc(C)cc34)cn2)cn1 [Compound P-3036, (1-Ethyl-1H-pyrazol-4-yl)-[5-(5-methyl-1H-pyrrolo[2,3-b]pyridin-3-ylmethyl)-pyrimidin-2-yl]-amine] | < 0.1 µM
7 | Clc1cnc2[nH]cc(Cc3cnc(NC4CCCC4)nc3)c2c1 [Compound P-3003, [5-(5-Chloro-1H-pyrrolo[2,3-b]pyridin-3-ylmethyl)-pyrimidin-2-yl]-cyclopentyl-amine] | > 1 µM
8 | COc1ccc(Nc2ncc(Cc3c[nH]c4ncc(C)cc34)cn2)cc1F [Compound P-3023, (3-Fluoro-4-methoxy-phenyl)-[5-(5-methyl-1H-pyrrolo[2,3-b]pyridin-3-ylmethyl)-pyrimidin-2-yl]-amine] | < 0.1 µM
9 | CCOc1ncnc2[nH]cc(Cc3ccc(Nc4cccnc4)nc3F)c12 [Compound P-4021, [5-(4-Ethoxy-7H-pyrrolo[2,3-d]pyrimidin-5-ylmethyl)-6-fluoro-pyridin-2-yl]-pyridin-3-yl-amine] | > 1 µM
10 | Cc1cnc2[nH]cc(Cc3cnc(Nc4cc(-c5ccc(F)cc5)n[nH]4)nc3)c2c1 [Compound P-3028, [5-(4-Fluoro-phenyl)-2H-pyrazol-3-yl]-[5-(5-methyl-1H-pyrrolo[2,3-b]pyridin-3-ylmethyl)-pyrimidin-2-yl]-amine] | < 0.1 µM
11 | CSc1ccc(Nc2ncc(Cc3c[nH]c4ncc(C)cc34)cn2)cc1 [Compound P-3033, [5-(5-Methyl-1H-pyrrolo[2,3-b]pyridin-3-ylmethyl)-pyrimidin-2-yl]-(4-methylsulfanyl-phenyl)-amine] | < 0.01 µM
12 | Cc1cnc2[nH]cc(Cc3cnc(Nc4cc(OC(C)C)n[nH]4)nc3)c2c1 [Compound P-3038, (5-Isopropoxy-2H-pyrazol-3-yl)-[5-(5-methyl-1H-pyrrolo[2,3-b]pyridin-3-ylmethyl)-pyrimidin-2-yl]-amine] | < 1 µM
13 | CCc1ccc(Nc2ncc(Cc3c[nH]c4ncc(C)cc34)cn2)cc1 [Compound P-3025, (4-Ethyl-phenyl)-[5-(5-methyl-1H-pyrrolo[2,3-b]pyridin-3-ylmethyl)-pyrimidin-2-yl]-amine] | < 0.01 µM
14 | Cc1cnc2[nH]cc(Cc3cnc(Nc4ccc(C(O)(C(F)(F)F)C(F)(F)F)cc4)nc3)c2c1 [Compound P-3031, 1,1,1,3,3,3-Hexafluoro-2-{4-[5-(5-methyl-1H-pyrrolo[2,3-b]pyridin-3-ylmethyl)-pyrimidin-2-ylamino]-phenyl}-propan-2-ol] | < 0.01 µM
15 | CCOc1ccc(Nc2ncc(Cc3c[nH]c4ncc(C)cc34)cn2)cc1 [Compound P-3026, (4-Ethoxy-phenyl)-[5-(5-methyl-1H-pyrrolo[2,3-b]pyridin-3-ylmethyl)-pyrimidin-2-yl]-amine] | < 0.1 µM
16 | COc1ccccc1Nc1ncc(Cc2c[nH]c3ncc(Cl)cc23)cn1 [Compound P-3016, [5-(5-Chloro-1H-pyrrolo[2,3-b]pyridin-3-ylmethyl)-pyrimidin-2-yl]-(2-methoxy-phenyl)-amine] | > 1 µM
17 | Cc1cncc(Nc2ccc(Cc3c[nH]c4ncnc(C5CC5)c34)c(F)n2)c1 [Compound P-4038, [5-(4-Cyclopropyl-7H-pyrrolo[2,3-d]pyrimidin-5-ylmethyl)-6-fluoro-pyridin-2-yl]-(5-methyl-pyridin-3-yl)-amine] | < 1 µM

The remaining lines, values ahead:

Row | IC50 | SMILES
18 | < 0.1 µM | COc1ccc(Nc2ncc(Cc3c[nH]c4ncc(C)cc34)cn2)cn1 [Compound P-3020, (6-Methoxy-pyridin-3-yl)-[5-(5-methyl-1H-pyrrolo[2,3-b]pyridin-3-ylmethyl)-pyrimidin-2-yl]-amine]
19 | < 1 µM | CCOc1ncnc2[nH]cc(Cc3ccc(Nc4ccc(Br)nc4)nc3F)c12 [Compound P-4020, (6-Bromo-pyridin-3-yl)-[5-(4-ethoxy-7H-pyrrolo[2,3-d]pyrimidin-5-ylmethyl)-6-fluoro-pyridin-2-yl]-amine]
20 | < 0.1 µM | Cc1cnc2[nH]cc(Cc3cnc(Nc4ccc(S(C)(=O)=O)cc4)nc3)c2c1 [Compound P-3034, (4-Methanesulfonyl-phenyl)-[5-(5-methyl-1H-pyrrolo[2,3-b]pyridin-3-ylmethyl)-pyrimidin-2-yl]-amine]
21 | < 1 µM | CCOc1ccc(Nc2ccc(Cc3c[nH]c4ncnc(C5CC5)c34)c(F)n2)cn1 [Compound P-4026, [5-(4-Cyclopropyl-7H-pyrrolo[2,3-d]pyrimidin-5-ylmethyl)-6-fluoro-pyridin-2-yl]-(6-ethoxy-pyridin-3-yl)-amine]
22 | > 1 µM | Fc1cccc(Nc2ncc(Cc3c[nH]c4ncc(Cl)cc34)cn2)c1 [Compound P-3017, [5-(5-Chloro-1H-pyrrolo[2,3-b]pyridin-3-ylmethyl)-pyrimidin-2-yl]-(3-fluoro-phenyl)-amine]
23 | < 1 µM | Cc1cnc2[nH]cc(Cc3cnc(Nc4cc(C(C)(C)C)n[nH]4)nc3)c2c1 [Compound P-3029, (5-tert-Butyl-2H-pyrazol-3-yl)-[5-(5-methyl-1H-pyrrolo[2,3-b]pyridin-3-ylmethyl)-pyrimidin-2-yl]-amine]
24 | < 1 µM | CCOc1ccc(Nc2ccc(C(=O)c3c[nH]c4ncnc(C)c34)c(F)n2)cn1 [Compound P-4032, [6-(6-Ethoxy-pyridin-3-ylamino)-2-fluoro-pyridin-3-yl]-(4-methyl-7H-pyrrolo[2,3-d]pyrimidin-5-yl)-methanone]
25 | < 1 µM | CCOc1ccc(Nc2ccc(C(=O)c3c[nH]c4ncnc(C5CC5)c34)c(F)n2)cn1 [Compound P-4027, (4-Cyclopropyl-7H-pyrrolo[2,3-d]pyrimidin-5-yl)-[6-(6-ethoxy-pyridin-3-ylamino)-2-fluoro-pyridin-3-yl]-methanone]
26 | > 1 µM | Clc1cnc2[nH]cc(Cc3cnc(NC4CC4)nc3)c2c1 [Compound P-3005, [5-(5-Chloro-1H-pyrrolo[2,3-b]pyridin-3-ylmethyl)-pyrimidin-2-yl]-cyclopropyl-amine]
27 | > 1 µM | Cc1cnc2[nH]cc(Cc3cnc(Nc4cc(C(F)(F)F)n[nH]4)nc3)c2c1 [Compound P-3037, [5-(5-Methyl-1H-pyrrolo[2,3-b]pyridin-3-ylmethyl)-pyrimidin-2-yl]-(5-trifluoromethyl-2H-pyrazol-3-yl)-amine]
28 | < 1 µM | CCOc1ccc(Nc2ccc(C(=O)c3c[nH]c4ncc(C)cc34)c(F)n2)cn1 [Compound P-3045, [6-(6-ethoxy-pyridin-3-ylamino)-2-fluoro-pyridin-3-yl]-(5-methyl-1H-pyrrolo[2,3-b]pyridin-3-yl)-methanone]
29 | < 0.1 µM | COc1cc(Nc2ncc(Cc3c[nH]c4ncc(C)cc34)cn2)ccc1F [Compound P-3022, (4-Fluoro-3-methoxy-phenyl)-[5-(5-methyl-1H-pyrrolo[2,3-b]pyridin-3-ylmethyl)-pyrimidin-2-yl]-amine]
30 | < 0.1 µM | CCOc1ccc(Nc2ncc(Cc3c[nH]c4ncc(C)cc34)cn2)cn1 [Compound P-3027, (6-Ethoxy-pyridin-3-yl)-[5-(5-methyl-1H-pyrrolo[2,3-b]pyridin-3-ylmethyl)-pyrimidin-2-yl]-amine]
31 | < 1 µM | Cc1cnc2[nH]cc(Cc3cnc(Nc4cc(C5CC5)n[nH]4)nc3)c2c1 [Compound P-3032, (5-Cyclopropyl-2H-pyrazol-3-yl)-[5-(5-methyl-1H-pyrrolo[2,3-b]pyridin-3-ylmethyl)-pyrimidin-2-yl]-amine]
32 | < 1 µM | Cc1cncc(Nc2ccc(C(=O)c3c[nH]c4ncnc(C5CC5)c34)c(F)n2)c1 [Compound P-4039, (4-Cyclopropyl-7H-pyrrolo[2,3-d]pyrimidin-5-yl)-[2-fluoro-6-(5-methyl-pyridin-3-ylamino)-pyridin-3-yl]-methanone]
